Experimental data reported in ChEMBL document CHEMBL4811217, “Peptide-based topical agents and intravenous hemostat for rapid hemostasis” (2020).
Residues, ends and D or L forms follow the SMILES beside them.

How the values were obtained:
Blood = assay: Induction of blood clotting in chicken serum free blood corpuscles assessed as blood clotting time at 1.5 mM by hayem-method; assay type: functional, Gallus gallus
Plasma = assay: Induction of clotting in chicken plasma assessed as thrombin clotting time at 1.5 mM; assay type: functional, Gallus gallus
[1] = Induction of platelet aggregation in iv dosed Sprague-Dawley rat model of liver injury assessed as reduction in blood loss measured after 30 mins; assay type: functional; set-up: scale not given: the % may be the effect or the level left; conditions: 0.5 h

**Q.** What does the source list for `CC(C)C[C@H](NC(=O)[C@H](Cc1cnc[nH]1)NC(=O)[C@H](Cc1cnc[nH]1)NC(=O)[C@H](CCC(N)=O)NC(=O)[C@@H](N)CCC(N)=O)C(=O)NCC(=O)NCC(=O)N[C@@H](C)C(=O)N[C@@H](CCCCN)C(=O)N[C@@H](CCC(N)=O)C(=O)N[C@@H](C)C(=O)NCC(=O)N[C@@H](CC(=O)O)C(=O)N[C@H](C(=O)O)C(C)C` (H-QQHHLGGAKQAGDV-OH)?
**A.** Time (Blood): 51 s; Time (Plasma): 35 s

**Q.** With `CC(C)C[C@H](NC(=O)[C@@H](NC(=O)[C@@H](N)CCCNC(=N)N)[C@@H](C)O)C(=O)N[C@@H](C)C(=O)N[C@@H](Cc1ccccc1)C(=O)N[C@H](C(=O)N[C@@H](CCCNC(=N)N)C(=O)N1CCC[C@H]1C(=O)N[C@@H](CCCCN)C(=O)O)C(C)C` (H-RTLAFVRPK-OH) as the compound, how does the Activity [1] read?
**A.** Its Activity is 60%.
